In patent US20120328638A1, “MYBL2 PEPTIDES AND VACCINES CONTAINING THE SAME” (Onco Therapy Science, Inc., priority 2009, published 2012):
“Also recorded” adds a separate entry of the source. Ends that are not written are not given here.

Tests used:
peptide-pulsed T2 cells = test: IFN-gamma ELISPOT assay of peptide specific CTL activity after in vitro CTL induction; assay type: cell-based, human; settings: against peptide-pulsed T2 cells compared with control not pulsed; PBMCs of HLA-A*0201 positive donor; day 21
Text: Monocyte-derived dendritic cells (DCs) were used as antigen-presenting cells (APCs) to induce cytotoxic T lymphocyte (CTL) responses against peptides presented on human leukocyte antigen (HLA). DCs were generated in vitro as described elsewhere (Nakahara S et al., Cancer Res 2003 Jul. 15, 63(14): 4112-8). Specifically, peripheral blood mononuclear cells (PBMCs) isolated from a normal volunteer (HLA-A*0201 positive) by Ficoll-Plaque (Pharmacia) solution were separated by adherence to a plastic tissue culture dish (Becton Dickinson) so as to enrich them as the monocyte fraction. The monocyte-enriched population was cultured in the presence of 1000 U/ml of granulocyte-macrophage colony-stimulating factor (R&D System) and 1000 U/ml of interleukin (IL)-4 (R&D System) in AIM-V Medium (Invitrogen) containing 2% heat-inactivated autologous serum (AS). After 7 days of culture, the cytokine-induced DCs were pulsed with 20 microgram/ml of each of the synthesized peptides in the presence of 3 microgram/ml of beta 2-microglobulin for 3 hrs at 37 degrees C. in AIM-V Medium. The generated cells appeared to express DC-associated molecules, such as CD80, CD83, CD86 and HLA class II, on their cell surfaces (data not shown). […]

[1] = test system: target cells pulsed with the corresponding peptide (T2); test: IFN-gamma ELISA assay of established CTL line and CTL clone; assay type: cell-based, human
Description: CTLs were expanded in culture using the method similar to the one described by Riddell et al. (Walter E A et al., N Engl J Med 1995 Oct. 19, 333(16): 1038-44; Riddell S R et al., Nat Med 1996 February, 2(2): 216-23). A total of 5×10^4 CTLs were suspended in 25 ml of AIM-V/5% AS medium with 2 kinds of human B-lymphoblastoid cell lines, inactivated by Mitomycin C, in the presence of 40 ng/ml of anti-CD3 monoclonal antibody (Pharmingen). One day after initiating the cultures, 120 IU/ml of IL-2 were added to the cultures. The cultures were fed with fresh AIM-V/5% AS medium containing 30 IU/ml of IL-2 on days 5, 8 and 11 (Tanaka H et al., Br J Cancer 2001 Jan. 5, 84(1): 94-9; Umano Y et al., Br J Cancer 2001 Apr. 20, 84(8): 1052-7; Uchida N et al., Clin Cancer Res 2004 Dec. 15, 10(24): 8577-86; Suda T et al., Cancer Sci 2006 May, 97(5): 411-9; Watanabe T et al., Cancer Sci 2005 August, 96(8): 498-506).
The dilutions were made to have 0.3, 1, and 3 CTLs/well in 96 round-bottomed micro titer plate (Nalge Nunc International). CTLs were cultured with 1×10^4 cells/well of 2 kinds of human B-lymphoblastoid cell lines, 30 ng/ml of anti-CD3 antibody, and 125 U/ml of IL-2 in a total of 150 microliter/well of AIM-V Medium containing 5% AS. 50 microliter/well of IL-2 were added to the medium 10 days later so to reach a final concentration of 125 U/ml IL-2. […]

[2] = test system: COS7 cells transfected with MYBL2 and HLA-A*0201; test: Specific CTL activity against target cells exogenously expressing MYBL2 and HLA-A*0201; assay type: cell-based, African green monkey
Text: The cDNA encoding an open reading frame of target genes or HLA-A*0201 was amplified by PCR. The PCR-amplified product was cloned into expression vector. The plasmids were transfected into COS7, which is the target genes and HLA-A*0201-null cell line, using lipofectamine 2000 (Invitrogen) according to the manufacturer's recommended procedures. After 2 days from transfection, the transfected cells were harvested with versene (Invitrogen) and used as the stimulator cells (5×10^4 cells/well) for CTL activity assay.
The established CTL clone raised against MYBL2-A02-9-144 (SEQ ID NO: 3) was examined for the ability to recognize target cells that express MYBL2 and HLA-A*0201 molecule. […] COS7 cells transfected with either full length of MYBL2 or HLA-A* 0201 were prepared as the controls.

Sequence: VLPPRQPSA [MYBL2-A02-9-355, VLPPRQPSA]
- IFN-gamma production of CTLs stimulated with peptide (ELISPOT) (peptide-pulsed T2 cells): specific IFN-gamma production was not observed; also recorded: no specific IFN-gamma production was detected

Sequence: RIICEAHKV [MYBL2-A02-9-144, RIICEAHKV]
- IFN-gamma production of CTL clone (ELISA) ([1]; CTL clone established by limiting dilution, target cells pulsed with peptide vs not pulsed): potent IFN-gamma production
- IFN-gamma production of CTL line (ELISA) ([1]; CTL line from well #8, target cells pulsed with peptide vs without peptide pulse): potent IFN-gamma production
- IFN-gamma production of CTLs stimulated with peptide (ELISPOT) (peptide-pulsed T2 cells): potent IFN-gamma production
- Specific CTL activity of CTL clone against COS7 cells expressing both MYBL2 and HLA-A*0201 ([2]; COS7 transfected with both full length MYBL2 and HLA-A*0201): potent CTL activity; also recorded: specific CTL activity
- Specific CTL activity of CTL clone against control COS7 cells ([2]; COS7 transfected with either full length MYBL2 or HLA-A*0201 alone): no significant specific CTL activity was detected
